Biological target: T1, amylase (Homo sapiens, UniProt P0DUB6)
T1 construct: 500-fold-diluted saliva (a specimen containing amylase, 20 μl); from tissue; host or cells: saliva, 500-fold diluted
T1 sequence (P0DUB6 16-511): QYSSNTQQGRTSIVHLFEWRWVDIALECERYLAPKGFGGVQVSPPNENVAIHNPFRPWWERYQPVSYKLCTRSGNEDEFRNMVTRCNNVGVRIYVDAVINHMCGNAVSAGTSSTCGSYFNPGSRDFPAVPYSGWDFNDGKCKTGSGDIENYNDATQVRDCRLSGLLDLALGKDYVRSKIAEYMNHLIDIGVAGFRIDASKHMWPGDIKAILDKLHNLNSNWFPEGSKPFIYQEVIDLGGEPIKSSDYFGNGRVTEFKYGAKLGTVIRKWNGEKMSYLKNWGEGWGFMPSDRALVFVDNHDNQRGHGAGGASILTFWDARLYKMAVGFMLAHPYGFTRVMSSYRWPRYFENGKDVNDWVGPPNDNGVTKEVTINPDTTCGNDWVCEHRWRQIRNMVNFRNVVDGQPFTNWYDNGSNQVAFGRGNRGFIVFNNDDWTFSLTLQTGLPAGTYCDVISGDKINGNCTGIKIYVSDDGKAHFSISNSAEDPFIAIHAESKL
Test: Salivary amylase assay with modified oligosaccharide substrates (Example 3)
Format: biochemical
Conditions: 5 mM substrate; 500-fold-diluted saliva; 37° C.
Description: Aliquots of the reaction mixture (each 1 ml), in which 5 mM p-nitrophenylpentaoside or p-nitrophenylheptaoside was added to the same reaction mixture described in Example 2, in small test tubes, were pre-incubated at 37° C. Aliquots of 500-fold-diluted saliva (a specimen containing amylase, 20 μl) were added thereto and the mixtures were incubated for 5, 10 and 15 mins., respectively.

SMILES: O=[N+]([O-])c1ccc(OC2O[C@H](CO)[C@@H](O[C@H]3O[C@H](CO)[C@@H](O[C@H]4O[C@H](CO)[C@@H](O[C@H]5O[C@H](CO)[C@@H](O[C@H]6O[C@H](CO)[C@@H](O[C@H]7O[C@H](CO)[C@@H](O[C@H]8O[C@H](CO)[C@@H](O)[C@H](O)[C@H]8O)[C@H](O)[C@H]7O)[C@H](O)[C@H]6O)[C@H](O)[C@H]5O)[C@H](O)[C@H]4O)[C@H](O)[C@H]3O)[C@H](O)[C@H]2O)cc1 (stereo partly shown) [p-nitrophenylheptaoside]
- activity as compared with p-nitrophenylpentaoside: Three times stronger activity
